“Also recorded” adds a separate entry of the source.
What was measured:
[1] = system: facial dyschromia and/or hyperpigmentation; assay: Clinical study, investigator mMASI scoring; assay type: in vivo, human
From the text: (§1) Participants underwent up to 8 study visits: screening, baseline, and 3 follow-up visits in the main study, and a 12-week extension study extended to participants at the week 12 follow up visit, which included an additional 3 follow-up visits to be conducted over 12 weeks: week 16, 20, and a final visit at week 24. At the initial screening visit, participants were consented prior to any study procedures. Medical/aesthetic history, concomitant medications, and study eligibility were collected and assessed. The following procedures were performed at Baseline: Investigator assessments, photography, Optical Coherence Tomography (OCT) imaging of the skin (only at select sites). […] Participants were asked to return to the office for follow-up visits at 4, 8, and 12 weeks. […] Participants randomized to the topical study product continued use of the product throughout the duration of the study, along with the study provided cleanser and sunscreen to apply to their facial skin as previously instructed.
(§2) The products were supplied in a kit with a number and then dispensed according to the baseline grading of dyschromia.
Investigator mMASI scoring was performed using a modified MASI scoring method depicted in FIG. 13.

facial skin [2] = assay: Clinical study, investigator assessment of tolerability (erythema, dryness, peeling); assay type: in vivo, human
From the text: as §1

facial skin [3] = assay: Clinical study, participant assessment of tolerability (burning/stinging, tingling, itching); assay type: in vivo, human
From the text: as §1

[4] = system: facial dyschromia and/or hyperpigmentation; assay: Clinical study, participant questionnaire; assay type: in vivo, human
From the text: as §1

facial skin [5] = conditions: human, in vivo, 12 weeks
From the text: Adverse events as assessed by investigators is an extremely important parameter for determining potential shortcomings of a product for treatment.

[6] = system: facial dyschromia and/or hyperpigmentation; assay: Clinical study, investigator assessment of facial skin severity; assay type: in vivo, human; conditions: scale 0-9
From the text: Forty-three (43) participants (male and female; skin types I-IV; mean age 49.2) with mild to severe facial dyschromia and/or hyperpigmentation on the face were enrolled. Participants provided consent and agreed to limit their sun exposure for the duration of the study. Participants were required to comply with the skincare regimen and return for follow-up visits. This study population was deemed a large enough sample size for safety and efficacy. Only eligible participants were selected to participate. Participants that were enrolled and completed the 3-month study for this protocol were eligible to participate in the 3-month extension study.
as §1, §2
As summarized in Table 15, investigator assessment of facial skin severity considered the overall appearance of dyschromia, skin tone (clarity and evenness), radiance, and skin texture, on the following scale: 0=none; 1-3=mild; 4-6=moderate; 7-9=severe.

[7] = system: hTERT-immortalized dermal melanocytes; assay: Melanocyte assay, daily inspection of cell morphology; assay type: cell-based, human; conditions: both concentrations of Table 11; five-day dosing period
Method: Once the melanocytes were 100% confluent in 6-well plates, the melanocyte growth media was removed and the melanocytes were treated with media containing the above compounds; duplicate wells for each compound/concentration listed above. The duplicate vehicle control wells were fed melanocyte growth media only or melanocyte growth media with DMSO (10 uL per 10 mL melanocyte growth media).
The cells were fed the appropriate media for the next 5 days. Each day, the cells were inspected for morphology.

melanocytes = assay: In vitro melanocyte comparative analysis via absorbance readings (melanin production); assay type: cell-based; conditions: for Absorbance 405 nm / Absorbance 490 nm / Absorbance 492 nm: 4 days, control = 0.0 row; for Regulation of melanogenesis (decreased absorption denoting decreased melanin formation): melanocytes, summary of Table 10
Method: Melanocytes were cultured in 6-well plates containing growth media. Once confluent, 2 concentrations of each of the 10 compounds were added to the cells in triplicate wells for 4 days. There were a total of eleven 6-well plates, one for each compound treatment and one for the vehicle control. Absorbance readings were taken on the lysates prepared for each well of the 6-well plates, normalizing for cells counts. The model was initially tested for accuracy and validated using hexapeptide-12 in view of strong gene expression results with melanocyte cell line in the first study—confirmation of decreased stimulation was obtained. Additional validation was carried out using MSH addition to media to confirm increased stimulation of melanin production. The following compounds used in this study are seen in Table 9.

keratinocytes = assay: Gene expression study (RNA sequencing) in keratinocytes; assay type: cell-based, human; conditions: 24 hours of compound exposure
Method: (§3) Four cell types associated with pigmentation pathways—melanocytes, keratinocytes, fibroblasts and endothelial (HUVEC) cells—were analyzed for gene expression.
(§4) To simulate the UV stimulatory pigmentation pathway process, melanocytes were pre-treated with PGE2, a normal direct consequence of UV light exposure usually emanating from exposed keratinocytes. After the 48 hour attachment culture, these melanocytes were induced with 10 uM PGE2 in melanocyte media for 24 hrs. The four primary human adult dermal cell lines were cultured and plated in well plates in triplicate and then treated with 11 different compound treatments (plus DMSO control). After 48 hours of attachment culture, the remaining fibroblasts, HUVECs and keratinocytes were treated with the test compounds listed in Table 8.
(§5) After 24 hours of compound exposure, RNA lysate preparation was carried out and samples were shipped to MedGenome for RNA extraction, library construction and sequencing to 25M paired end 100 bp reads per sample. Library prep and sequencing was completed at MedGenome.

[8] = system: endothelial (HUVEC) cells; assay: Gene expression study (RNA sequencing) in endothelial (HUVEC) cells; assay type: cell-based, human; conditions: 24 hours of compound exposure
Method: as §3, §4, §5

[9] = change week 0 to week 12, N = 44 study product, N = 42 HQ4%
[10] = week 0 (baseline), N = 44 study product, N = 42 HQ4%
[11] = week 12, N = 44 study product, N = 42 HQ4%
[12] = higher concentration (Lactoferrin 1000, HEX-11 200, Phosphatidylserine 500, Silymarin 20, Sesamol 100, Tranexamic Acid 1000, HEX-12 4.9, ug/mL or ug/uL; Phytoene/Phytofluene 5.00%)
[13] = lower concentration (Lactoferrin 500, HEX-11 100, Phosphatidylserine 250, Silymarin 10, Sesamol 50, Tranexamic Acid 500, HEX-12 2.9, ug/mL or ug/uL; Phytoene/Phytofluene 2.50%)

## Oc1ccc(O)cc1 [HQ 4%, Hydroquinone]
[1]; Week 12
  Left mMASI, mean: 1.8
  Left malar, mean: 6
  Right mMASI, mean: 1.9
  Right malar, mean: 6.3
  Total mMASI, mean: 5.2
[1]; change week 0 to week 12
  Left mMASI, mean change: 0.3
  Left malar, mean change: 1.1
  Right mMASI, mean change: 0.3
  Right malar, mean change: 1.1
  Total mMASI, mean change: 1
[1]; [9]
  Combined right and left mMASI, mean change: 0.3
  Combined right and left malar, mean change: 1.1
[1]; summary of Table 17
  improvement in mMASI scoring at 12 weeks versus baseline: no such improvement
[1]; week 0 (baseline)
  Left mMASI, mean: 2.2
  Left malar, mean: 7.2
  Right mMASI, mean: 2.2
  Right malar, mean: 7.4
  Total mMASI, mean: 6.1
[1]; [10]
  Combined right and left mMASI, mean: 2.2
  Combined right and left malar, mean: 7.3
[1]; [11]
  Combined right and left mMASI, mean: 1.9
  Combined right and left malar, mean: 6.2
Facial skin [2]; Week 4
  Dryness, percent of participants: 13.6%
  Erythema, percent of participants: 23%
  Peeling, percent of participants: 13.6%
Facial skin [2]; Week 8
  Dryness, percent of participants: 14%
  Erythema, percent of participants: 14%
  Peeling, number of participants and grade: 1 mild
  Peeling, percent of participants: 4.7%
Facial skin [2]; Week 12
  Dryness, number of participants and grade: 0
  Erythema, number of participants and grade: 4 minimal
  Erythema, percent of participants: 19%
  Peeling, number of participants and grade: 0
Facial skin [3]; Week 4
  Burning/Stinging, number of participants and grade: 6 minimal
  Burning/Stinging, percent of participants: 27%
  Itching, percent of participants: 36%
  Tingling, percent of participants: 18%
Facial skin [3]; Week 8
  Burning/Stinging, percent of participants: 9.5%
  Itching, number of participants and grade: 1 minimal
  Itching, percent of participants: 4.7%
  Tingling, number of participants and grade: 1 mild
  Tingling, percent of participants: 4.7%
Facial skin [3]; Week 12
  Burning/Stinging, number of participants and grade: 2 minimal
  Burning/Stinging, percent of participants: 9.5%
  Itching, percent of participants: 9.5%
  Tingling, number of participants and grade: 1 minimal
  Tingling, percent of participants: 4.7%
Facial skin [3]; summary of Table 19
  participant-reported irritation versus the study product population: irritation is increased across all parameters
[4]; Week 4
  Improved the evenness of my skin tone, % Agree or Somewhat Agree: 76.19%
  Improved the overall appearance of my skin, % Agree or Somewhat Agree: 76.19%
  Lessened the appearance of the dark spots and discoloration on my skin, % Agree or Somewhat Agree: 80.95%
  Made me feel more confident in the way my skin looks, % Agree or Somewhat Agree: 61.90%
  Made my skin look brighter and more radiant, % Agree or Somewhat Agree: 66.67%
  Made my skin look healthier, % Agree or Somewhat Agree: 61.90%
  Made my skin look more youthful, % Agree or Somewhat Agree: 42.86%
[4]; Week 8
  Improved the overall appearance of my skin, % Agree or Somewhat Agree: 85.71%
  Lessened the appearance of the dark spots and discoloration on my skin, % Agree or Somewhat Agree: 80.95%
  Made me feel more confident in the way my skin looks, % Agree or Somewhat Agree: 61.90%
  Made my skin look brighter and more radiant, % Agree or Somewhat Agree: 66.67%
  Made my skin look healthier, % Agree or Somewhat Agree: 71.43%
  Made my skin look more youthful, % Agree or Somewhat Agree: 71.43%
[4]; Week 12
  Improved the evenness of my skin tone, % Agree or Somewhat Agree: 85.71%
  Improved the overall appearance of my skin, % Agree or Somewhat Agree: 85.71%
  Lessened the appearance of the dark spots and discoloration on my skin, % Agree or Somewhat Agree: 76.19%
  Made me feel more confident in the way my skin looks, % Agree or Somewhat Agree: 61.90%
  Made my skin look brighter and more radiant, % Agree or Somewhat Agree: 90.48%
  Made my skin look healthier, % Agree or Somewhat Agree: 85.71%
  Made my skin look more youthful, % Agree or Somewhat Agree: 71.43%
[4]; Week &
  Improved the evenness of my skin tone, % Agree or Somewhat Agree: 85.71%
Facial skin [5]
  adverse events, percent of population: 23.8%
  total number of adverse events reported: 5
[6]; change week 0 to week 12
  Dyschromia, investigator score, mean change: 0.9
  Radiance, investigator score, mean change: 0.3
  Skin tone, investigator score, mean change: 0.9
  Texture, investigator score, mean change: 0
[6]; week 0 (baseline)
  Dyschromia, investigator score, mean: 5.7
  Radiance, investigator score, mean: 5
  Skin tone, investigator score, mean: 5.5
  Texture, investigator score, mean: 4.2
[6]; week 12
  Dyschromia, investigator score, mean: 4.8
  Radiance, investigator score, mean: 4.6
  Skin tone, investigator score, mean: 4.7
  Texture, investigator score, mean: 4.2

## C/C=C1/[C@H](O[C@@H]2O[C@H](CO)[C@@H](O)[C@H](O)[C@H]2O)OC=C(C(=O)OC)[C@H]1CC(=O)OCCc1ccc(O)c(O)c1 [Oleuropein]
[7]
  melanocyte morphology / survival on daily inspection: nearly all melanocytes were dead 72 hours post-initial dosing

## Hexapeptide-11
melanocytes; [12]
  Absorbance 405 nm: 0.338
  Absorbance 490 nm: 0.227
  Absorbance 492 nm: 0.163
melanocytes; [13]
  Absorbance 405 nm: 0.461
  Absorbance 490 nm: 0.288
  Absorbance 492 nm: 0.209
melanocytes
  Regulation of melanogenesis (decreased absorption denoting decreased melanin formation): Regulation of melanogenesis was observed
keratinocytes
  melanogenesis gene activity in keratinocytes: active ingredient in melanogenesis activity; also recorded: significant effects on melanogenesis activity

## Phosphatidylserine
melanocytes; [12]
  Absorbance 405 nm: 0.61
  Absorbance 490 nm: 0.38
  Absorbance 492 nm: 0.288
melanocytes; [13]
  Absorbance 405 nm: 0.686
  Absorbance 490 nm: 0.438
  Absorbance 492 nm: 0.338
melanocytes
  Regulation of melanogenesis (decreased absorption denoting decreased melanin formation): Regulation of melanogenesis was observed
[8]
  activity on EDN1 and other melanogenic genes in HUVECs: potent activity; also recorded: significant effects on melanogenesis activity

From US20240225985A1, “BRIGHTENING COMPOSITIONS AND METHODS OF USE” (Alastin Skincare, Inc., priority 2021, published 2024)
